Counter-ions that a name gives are not always drawn. One block for each molecule: values may come before it.
Experiments:
[1] = target: T1, furin (endogenous protease) in U20S cells (Homo sapiens, UniProt P09958); test: Furin cell-based assay (image-based, Golgi-targeted GFP with BMP10 furin/PCSK cleavage site); details: 24-hour incubation, read-out: furin golgi cell pXC50 (converted);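 note: Read-out is mean GFP fluorescence of Golgi puncta per cell by high-content imaging, retained when furin inhibited, over an eleven-point 0.00017–10 µM series, four-parameter fit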
T1 construct: the endogenous protease cleaves GFP; endogenous in cells; host or cells: U2OS cells transduced with a BacMam reporter

[2] = tested on: TGFβ in mouse lung; test: Bleomycin induced lung fibrosis model: TGFβ assay; type: in vivo; details: relative to levels induced by Bleomycin in vehicle treated animals, *p < 0.05
Experimental: (§1) Preclinical pulmonary fibrosis can be induced by single instillation of Bleomycin to the mouse lung. A 15-day Bleomycin protocol was developed to evaluate compounds of the invention in vivo for their ability to inhibit TGFβ secretion and collagen deposition in the mouse lung. On the day before Bleomycin instillation, compounds were administrated to mice based on the appropriate route and frequency. On the study initiation day, under Ketamine (80 mg/kg) and Xylazine (10 mg/kg) anesthesia, all the animals were cannulated oro-tracheally and 50 μL of normal saline (Sham control) or 0.03 U Bleomycin in 50 μL saline (all groups except sham control group) was delivered into the trachea. Compounds were dosed daily until the end of study on Day 15. On termination day, animals were euthanized using CO2 inhalation. The right lung was collected, washed in normal saline, weighed, flash frozen in liquid nitrogen and stored at −80° C. for hydroxyproline (a specific marker for collagen) and TGFβ assays.
(§2) Flash frozen whole right lung tissues were homogenized in 500 μL of RIPA buffer containing PMSF and protease inhibitor cocktail using zirconium oxide bead based homogenizer (Bullet blender Gold, NextAdvance, Germany). Briefly, tissues were spun in the homogenizer at 4° C. for three cycles of 10 minutes each at 1000 g. A complete uniform tissue mixture was obtained using this procedure. The homogenate volume was made up to 1.5 mL by adding 1 mL of RIPA buffer containing PMSF and protease inhibitor cocktail to 500 μL of homogenate. The homogenate was stored as aliquots of 100-500 μL each at −80° C.
Lung tissue homogenates (500 μL) were spun at 13,000 rpm for 20 minutes at 4° C. and supernatants were collected for TGFβ estimation. The assay was performed according to the manufacturer's manual (R&D systems: Cat #SMB100B). Briefly, the lung homogenates were activated by acid activation followed by neutralization to convert latent TGFβ to active TGFβ and the total TGFβ levels in supernatants were measured. Total protein levels in the lung supernatant were also determined.

[3] = target: T2, Furin (108-574-Tev-Flag-His) enzyme (Homo sapiens, UniProt P09958); test: Furin enzyme assay; type: biochemical
T2 construct: Furin (108-574-Tev-Flag-His) enzyme was expressed and purified from CHO cells; TEV cleavage site (C); FLAG (C); His (C); made in house; host or cells: CHO cells
Method in brief: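 Compounds ran as 11-point threefold dilutions (0.00017–10 μM final) against 40 pM furin, purified from CHO cells, for 2 h at room temperature. Buffer: 100 mM HEPES pH7.5 with 1 mM CaCl2 and 0.005% Triton X-100. Envision readout. Four-parameter curve gives pXC50.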

[4] = tested on: hydroxyproline (a specific marker for collagen) in mouse lung; test: Bleomycin induced lung fibrosis model: hydroxyproline assay; type: in vivo; details: relative to levels induced by Bleomycin in vehicle treated animals, *p < 0.05
Experimental: as §1, §2
Acid hydrolysis: 500 μL of the homogenized lung parenchyma was transferred to glass vials, and an equal volume of 12N HCl was added (final concentration of HCl: 6N). The vials were purged with nitrogen gas, sealed and incubated overnight (16 h) under anoxic conditions at 110° C.
Post incubation procedures: 35 μL of the sample from each tube or standard (prepared by serial dilution of hydroxyproline stock solution) was added onto a 96 well plate and the assay was performed as per the kit protocol (Quickzyme Biosciences: Cat #: QZBHYPR05). After the final color development, absorbance was measured by colorimetric analysis at 570 nm (using Thermoscan spectrum (Plate Reader) and results were recorded. Standard curve (linear graph) was generated by using hydroxyproline standards provided in the Quickzyme kit.

[5] = 10 mg/kg, Intra-peritoneal, Twice daily

T2 sequence (P09958 108-574): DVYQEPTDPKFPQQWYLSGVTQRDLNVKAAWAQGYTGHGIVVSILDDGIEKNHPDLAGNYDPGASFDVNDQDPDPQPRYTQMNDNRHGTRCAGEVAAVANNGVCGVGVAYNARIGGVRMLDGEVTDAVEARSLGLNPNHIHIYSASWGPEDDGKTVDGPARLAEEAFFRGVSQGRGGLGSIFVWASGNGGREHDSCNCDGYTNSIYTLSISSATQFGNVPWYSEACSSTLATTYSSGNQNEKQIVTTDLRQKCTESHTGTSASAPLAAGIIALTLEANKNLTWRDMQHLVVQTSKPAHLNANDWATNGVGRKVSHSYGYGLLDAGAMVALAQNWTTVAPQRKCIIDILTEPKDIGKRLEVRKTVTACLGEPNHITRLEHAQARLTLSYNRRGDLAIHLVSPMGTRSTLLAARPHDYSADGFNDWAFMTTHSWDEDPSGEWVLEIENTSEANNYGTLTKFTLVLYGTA
T1 sequence (P09958 108-794): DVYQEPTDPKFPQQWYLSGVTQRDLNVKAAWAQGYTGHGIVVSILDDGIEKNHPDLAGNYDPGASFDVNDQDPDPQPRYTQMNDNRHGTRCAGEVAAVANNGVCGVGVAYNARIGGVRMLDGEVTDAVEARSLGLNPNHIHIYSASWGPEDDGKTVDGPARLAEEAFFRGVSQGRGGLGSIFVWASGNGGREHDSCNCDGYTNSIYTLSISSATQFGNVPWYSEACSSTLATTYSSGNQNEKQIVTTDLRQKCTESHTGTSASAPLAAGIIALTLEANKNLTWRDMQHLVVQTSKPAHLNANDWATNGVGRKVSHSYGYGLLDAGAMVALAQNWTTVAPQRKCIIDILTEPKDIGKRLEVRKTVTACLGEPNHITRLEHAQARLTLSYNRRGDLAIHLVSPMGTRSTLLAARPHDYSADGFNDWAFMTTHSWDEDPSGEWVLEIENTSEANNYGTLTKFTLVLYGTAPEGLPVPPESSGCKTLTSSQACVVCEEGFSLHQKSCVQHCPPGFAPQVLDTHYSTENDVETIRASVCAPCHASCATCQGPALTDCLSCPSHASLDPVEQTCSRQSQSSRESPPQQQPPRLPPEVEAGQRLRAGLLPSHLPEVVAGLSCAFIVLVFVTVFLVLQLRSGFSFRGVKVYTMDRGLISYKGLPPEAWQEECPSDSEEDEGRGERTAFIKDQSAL

SMILES: COC(=O)NCC1CCN(Cc2cc(Oc3cnc(N4CCN(CCC(=O)O)CC4)nc3)nc(-c3cc(Cl)cc(Cl)c3)c2)CC1 [Example 62, 3-(4-(5-((6-(3,5-Dichlorophenyl)-4-1(4-(((methoxycarbonyl)amino)methyl)piperidin-1-yl)methyl)pyridin-2-yl)oxy)pyrimidin-2-yl)piperazin-1-yl)propanoic acid, 4 hydrochloride]
EC50 [1]: 31.6 nM
% inhibition of total TGFβ in lung ([2]; 30 mg/kg, Oral, Once daily): 7%
furin enzyme pIC50 [3]: 9.8
% inhibition of hydroxyproline in lung ([4]; 30 mg/kg, Oral, Once daily): −14%

SMILES: CC(=O)NCC1CCN(Cc2cc(Oc3ccc(N4CCN(CC(=O)O)CC4)nc3)nc(-c3cc(Cl)cc(Cl)c3)c2)CC1 [Example 10, 2-(4-(5-((4-((4-(Acetamidomethyl)piperidin-1-yl)methyl)-6-(3,5-dichlorophenyl)pyridin-2-yl)oxy)pyridin-2-yl)piperazin-1-yl)acetic acid, 4 hydrochloride]
EC50 [1]: 126 nM
% inhibition of total TGFβ in lung [2, 5]: 43* %
furin enzyme pIC50 [3]: 8.7
% inhibition of hydroxyproline in lung [4, 5]: 16%

SMILES: O=C(O)CC1CCN(Cc2cc(Oc3cnc(N4CCNCC4)nc3)nc(-c3cc(Cl)cc(Cl)c3)c2)CC1 [Example 206, 2-(1-((2-(3,5-Dichlorophenyl)-6-((2-(piperazin-1-yl)pyrimidin-5-yl)oxy)pyridin-4-yl)methyl)piperidin-4-yl)acetic acid]
EC50 [1]: 25.1 nM
% inhibition of total TGFβ in lung ([2]; 10 mg/kg, Oral, Once daily): −11%
furin enzyme pIC50 [3]: 8.6
% inhibition of hydroxyproline in lung ([4]; 10 mg/kg, Oral, Once daily): 6%

SMILES: CS(=O)(=O)CCCN1CCN(c2ncc(Oc3cc(CN4CCC(CC(=O)O)CC4)cc(-c4cc(Cl)cc(Cl)c4)n3)cn2)CC1 [Example 242, 2-(1-((2-(3,5-Dichlorophenyl)-6-((2-(4-(3-(methylsulfonyl)propyl)piperazin-1-yl)pyrimidin-5-yl)oxy)pyridin-4-yl)methyl)piperidin-4-yl)acetic acid]
EC50 [1]: 25.1 nM
% inhibition of total TGFβ in lung ([2]; 10 mg/kg, Oral, Once daily): 40* %
furin enzyme pIC50 [3]: 8.6
% inhibition of hydroxyproline in lung ([4]; 10 mg/kg, Oral, Once daily): −1%

SMILES: CN1CCN(c2ncc(Oc3cc(CN4CCC(CC(=O)O)CC4)cc(-c4cc(Cl)cc(Cl)c4)n3)cn2)CC1 [Example 207, 2-(1-((2-(3,5-Dichlorophenyl)-6-((2-(4-methylpiperazin-1-yl)pyrimidin-5-yl)oxy)pyridin-4-yl)methyl)piperidin-4-yl)acetic acid]
% inhibition of total TGFβ in lung ([2]; 10 mg/kg, Oral, Once daily): 66* %
% inhibition of hydroxyproline in lung ([4]; 10 mg/kg, Oral, Once daily): 46* %

More lines, main results first:

EC50 [1]: 25.1 nM
furin enzyme pIC50 [3]: 8.3
SMILES: CC(=O)NCC1CCN(Cc2cc(Oc3ccc(N4CCN(CCS(C)(=O)=O)CC4)nc3)nc(-c3cc(Cl)cc(Cl)c3)c2)CC1 [Example 12, N-((1-((2-(3,5-Dichlorophenyl)-6-((6-(4-(2-(methylsulfonyl)ethyl)piperazin-1-yl)pyridin-3-yl)oxy)pyridin-4-yl)methyl)piperidin-4-yl)methyl)acetamide, 4 hydrochloride]
% inhibition of total TGFβ in lung ([2]; 30 mg/kg, Oral, Once daily): 41* %
% inhibition of hydroxyproline in lung ([4]; 30 mg/kg, Oral, Once daily): 45* %

EC50 [1]: 25.1 nM
furin enzyme pIC50 [3]: 8.9
SMILES: O=C(O)CC1CCN(Cc2cc(Oc3cnc(N4CCN(CCO)CC4)nc3)nc(-c3cc(Cl)cc(Cl)c3)c2)CC1 [Example 306, 2-(1-((2-(3,5-dichlorophenyl)-6-((2-(4-(2-hydroxyethyl)piperazin-1-yl)pyrimidin-5-yl)oxy)pyridin-4-yl)methyl)piperidin-4-yl)acetic acid]
% inhibition of total TGFβ in lung ([2]; 10 mg/kg, Oral, Once daily): 31* %
% inhibition of hydroxyproline in lung ([4]; 10 mg/kg, Oral, Once daily): 11%

EC50 [1]: 20 nM
furin enzyme pIC50 [3]: 8.8
SMILES: CN1CCCN(c2cnc(Oc3cc(CN4CCC(CC(=O)O)CC4)cc(-c4cc(Cl)cc(Cl)c4)n3)cn2)CC1 [Example 340, 2-(1-((2-(3,5-dichlorophenyl)-6-((5-(4-methyl-1,4-diazepan-1-yl)pyrazin-2-yl)oxy)pyridin-4-yl)methyl)piperidin-4-yl)acetic acid]
% inhibition of total TGFβ in lung ([2]; 30 mg/kg, Oral, Once daily): 26* %
% inhibition of hydroxyproline in lung ([4]; 30 mg/kg, Oral, Once daily): 21* %

From US11773078B2, “Furin inhibitors” (Glaxosmithkline Intellectual Property Development Limited, priority 2018, dated 2023)
